# Earlier results as cited in patent US20060069069A1, “Methods and compositions for the administration of calcium chelators, bisphosponates and/or citrate compounds and their pharmaceutical uses” (Nanobac Pharmaceuticals, Inc., priority 2004, published 2006).
# System: bone resorption
# Settings: versus etidronate; both in vitro and in vivo
structure (smiles),measurement,value
NCCCC(O)(P(=O)(O)O)P(=O)(O)O [alendronate],potency relative to etidronate for the prevention of bone resorption,approximately 700 fold
